Laboratory results from article PMC4211326, “H-CRRETAWAC-OH, a Lead Structure for the Development of Radiotracer Targeting Integrin α 5 β 1?” (BioMed Research International, 2014).
Where “and” joins values, the source holds several entries; their conditions need not be identical. Identical values can stand only once. Like-named read-outs stand apart in the source and are kept apart here. Where a SMILES comes first, the peptide text is derived from it. Bridges are numbered along the chain shown (N, C = ends). The star is where a group is joined. Propanoyl(2-F) = CC(F)C(=O)*

Legend:
integrin αvβ3 = molecular target: T1, integrin αvβ3 (Homo sapiens, UniProt P05106+P06756); assay: Isolated receptor binding assay, immobilised integrin, [125I]echistatin displacement
T1 construct: purchased Chemicon, Millipore
Method: (§1) The receptor binding assay was performed following the procedure described previously. In brief, commercially available purifiedα v β 3,α 5 β 1, orα IIb β 3 (Triton X-100 formulation, Chemicon, Millipore) was diluted in coating buffer (25 mM Tris-HCl, 150 mM NaCl, 1 mM CaCl2, 0.5 mM MgCl2, 1 mM MnCl2, pH 7.4), and an aliquot of 100 μL/well, corresponding to 25 ng/wellα v β 3, 100 ng/wellα 5 β 1, or 50 ng/wellα IIb β 3, was added to a 96-well microtiter plate (Maxisorb, Nunc, Wiesbaden, Germany) and incubated at 4°C overnight. The cells were incubated for two hours with blocking buffer (200 μL, coating buffer containing 1% (w/v) bovine serum albumin (BSA)) at room temperature. After washing twice with binding buffer (coating buffer with 0.1% (w/v) BSA) the cells were incubated in the presence of the competing ligand (90 μL, 0.5 pM to 500 nM echistatin; 0.05 nM to 50 μM peptide in binding buffer) with [^125I]echistatin (0.37 kBq/well, 10 μL, 0.05 nM; PerkinElmer, Germany) for 3 h. Afterwards, the cells were washed three times with binding buffer, and bound [^125I]echistatin was solubilised with warm NaOH (2 M). The radioactivity in the resulting samples was measured by a γ-counter. Each data point represents the mean from three cells. All measurements were repeated at least once. K i values were calculated using the software program GraphPad PRISM (GraphPad Software Inc., CA, USA).
(§2) The binding affinities were determined using isolated receptor binding assays where the different integrins (α 5 β 1,α v β 3, andα IIb β 3) were immobilised and [^125I]echistatin was replaced by increasing amounts of the different peptides tested. […] Introduction of the (RS)-2-fluoropropionic acid at the N-terminus of the peptide reduced the binding affinity by a factor of approx. 10.

integrin α5β1 = molecular target: T2, integrin α5β1 (Homo sapiens, UniProt P05556+P08648); assay: as above; conditions: for Ki: immobilized integrin; for Suppression of the binding of [125I]echistatin to immobilised integrin α5β1: result in words
T2 construct: purchased Chemicon, Millipore
Method: as §1, §2

integrin αIIbβ3 = molecular target: T3, integrin αIIbβ3 (Homo sapiens, UniProt P05106+P08514); assay: as above
T3 construct: purchased Chemicon, Millipore
Method: as §1, §2

α5β1 = test system: α5β1; set-up: method as in PMID 7507494; conditions: read-out: IC50, inhibition of binding of fibronectin to α5β1; cited from earlier work
[1] = assay type: in vitro ADME, human
Method: The protein binding studies were carried out by incubating [^18F]FProp-C^*RRETAWAC^*-OH (1 MBq/mL) in fresh human serum at 37°C for different time points (30, 60, and 120 min). After incubation, the solution was passed through a spin column (MicroSpin G-50 columns; GE Healthcare, Buckinghamshire, United Kingdom). Protein binding was determined by measuring the activity fixed on the column and the activity in the eluate in the gamma counter. As control [^18F]FProp-C^*RRETAWAC^*-OH was incubated at the same concentration for 60 min in PBS instead of serum.

[2] = test system: DU145 human prostate carcinoma cells (αvβ3-negative and α5β1-positive); assay: Cell uptake study with/without blocking by H-C*RRETAWAC*-OH; assay type: cell-based; conditions: 37°C, with or without excess H-C*RRETAWAC*-OH
Method: (§3) M21 (α v β 3-positive andα 5 β 1-negative), […] (α v β 3-negative andα 5 β 1-positive), and M21L (both receptors negative) cells were maintained in Gibco RPMI 1640 (Life Technologies, Carlsbad, CA) containing 1% glutamine, 10% (v/v) fetal calf serum (FCS), and 1% penicillin/streptomycin/glutamine and grown in tissue culture flasks (Cellstar; Greiner Bio-One, Kremsmuenster, Austria) at 37°C in a humidified atmosphere of 5% CO2 (v/v). For cell uptake studies, cells were trypsinised, washed twice with binding buffer (10 mM HEPES (pH 7.4), 150 mM NaCl, 2 mM MnCl2, 0.1% BSA), and aliquots of 0.9 mL containing 2 × 10^6 cells were transferred to Eppendorf tubes. After addition of 50 μL radiotracer (>100,000 cpm), cells were incubated at 37°C for 120 min in triplicate with either 50 μL PBS with 0.5% BSA (unblocked) or 50 μL of 50 μM H-C^*RRETAWAC^*-OH in PBS/0.5% BSA (blocked), respectively.
(§4) Incubation was stopped by centrifugation (2 min, 1000 rpm); medium was removed and cells were washed twice with 1 mL ice-cold binding buffer. […] Cells were lysed by treatment in 1 N NaOH and […] radioactivity was collected (internalised radioligand fraction). Protein content in the NaOH fraction was determined using spectrophotometric determination with Bradford reagent (Sigma Aldrich, Vienna, Austria). Internalised radioactivity was expressed as percentage of total activity per mg protein.

[3] = test system: M21-L human melanoma cells (both receptors negative); assay: as above; assay type: cell-based; conditions: 37°C, with or without excess H-C*RRETAWAC*-OH
Method: as §3, §4

[4] = assay type: in vitro ADME, human; remark: listed apart in the source
Method: For stability studies, [^18F]FProp-C^*RRETAWAC^*-OH (approx. 2 MBq/mL) was incubated in human serum for 30, 60, and 120 min at 37°C. At each time point, aliquots of 100 μL were taken and proteins were precipitated using 150 μL acetonitrile. The suspension was treated for 5 min with ultrasound and subsequently centrifuged. The supernatant was diluted with water and analysed by HPLC.

[5] = Binding affinity (Ki) α5β1, average and standard deviation of the mean, or bound with n = 2, 125I-echistatin
[6] = Binding affinity (Ki) α5β1, single determinations, 125I-echistatin as radioligand
[7] = average and standard deviation of the mean, or bound with n = 2, 125I-echistatin, read-out: Binding affinity (Ki) α5β1
[8] = single determinations, 125I-echistatin as radioligand, read-out: Binding affinity (Ki) α5β1

T2 sequence (P08648 42-894 limits assumed): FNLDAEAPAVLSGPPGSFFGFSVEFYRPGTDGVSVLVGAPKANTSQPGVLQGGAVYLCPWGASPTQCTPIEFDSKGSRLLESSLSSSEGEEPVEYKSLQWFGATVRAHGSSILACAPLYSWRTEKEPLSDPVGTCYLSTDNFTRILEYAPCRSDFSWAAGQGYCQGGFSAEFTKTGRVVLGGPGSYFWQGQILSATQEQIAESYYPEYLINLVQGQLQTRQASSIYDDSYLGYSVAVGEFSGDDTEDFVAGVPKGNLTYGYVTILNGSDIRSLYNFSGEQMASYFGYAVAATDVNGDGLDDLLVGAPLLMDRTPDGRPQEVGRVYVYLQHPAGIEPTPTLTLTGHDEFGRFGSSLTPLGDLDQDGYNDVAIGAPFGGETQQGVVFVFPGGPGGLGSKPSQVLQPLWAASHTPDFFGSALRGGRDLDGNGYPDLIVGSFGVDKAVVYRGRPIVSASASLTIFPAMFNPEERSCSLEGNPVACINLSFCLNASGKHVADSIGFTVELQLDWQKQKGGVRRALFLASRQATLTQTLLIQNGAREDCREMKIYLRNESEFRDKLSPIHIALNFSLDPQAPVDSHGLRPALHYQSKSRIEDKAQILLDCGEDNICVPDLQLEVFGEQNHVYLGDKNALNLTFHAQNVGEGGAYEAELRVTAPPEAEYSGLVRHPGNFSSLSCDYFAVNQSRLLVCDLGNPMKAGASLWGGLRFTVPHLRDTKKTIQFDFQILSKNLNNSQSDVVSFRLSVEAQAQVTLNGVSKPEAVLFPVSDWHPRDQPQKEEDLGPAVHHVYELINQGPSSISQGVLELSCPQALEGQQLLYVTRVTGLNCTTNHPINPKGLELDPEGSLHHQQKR
T2 sequence (P08648 895-1049 partner limits assumed): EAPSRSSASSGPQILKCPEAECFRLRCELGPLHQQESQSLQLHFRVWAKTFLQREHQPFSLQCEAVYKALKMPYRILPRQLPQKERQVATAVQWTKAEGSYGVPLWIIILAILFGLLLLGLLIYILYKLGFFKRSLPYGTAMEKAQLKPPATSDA
T2 sequence (P05556 21-798): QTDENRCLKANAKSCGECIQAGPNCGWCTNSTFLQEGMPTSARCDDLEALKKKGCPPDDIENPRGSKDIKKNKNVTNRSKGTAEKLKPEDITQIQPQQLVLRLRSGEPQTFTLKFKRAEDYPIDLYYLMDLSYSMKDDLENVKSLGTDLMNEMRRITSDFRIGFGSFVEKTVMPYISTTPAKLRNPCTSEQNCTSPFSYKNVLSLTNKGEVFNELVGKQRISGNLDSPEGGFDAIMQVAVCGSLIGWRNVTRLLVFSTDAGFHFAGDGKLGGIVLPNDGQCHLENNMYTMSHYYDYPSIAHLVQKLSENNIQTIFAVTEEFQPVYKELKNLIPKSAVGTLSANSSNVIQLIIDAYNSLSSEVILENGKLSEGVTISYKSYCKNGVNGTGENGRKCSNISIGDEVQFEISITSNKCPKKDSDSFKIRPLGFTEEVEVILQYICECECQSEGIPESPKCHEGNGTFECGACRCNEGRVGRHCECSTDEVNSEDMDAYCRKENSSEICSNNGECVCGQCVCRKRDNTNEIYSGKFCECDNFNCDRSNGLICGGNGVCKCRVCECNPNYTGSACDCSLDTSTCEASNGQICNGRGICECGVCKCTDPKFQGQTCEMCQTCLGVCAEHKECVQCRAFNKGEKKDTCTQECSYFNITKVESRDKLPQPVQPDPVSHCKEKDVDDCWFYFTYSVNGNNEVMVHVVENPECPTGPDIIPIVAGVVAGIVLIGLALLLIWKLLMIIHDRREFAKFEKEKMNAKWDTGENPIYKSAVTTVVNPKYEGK
T1 sequence (P06756 31-889 limits assumed): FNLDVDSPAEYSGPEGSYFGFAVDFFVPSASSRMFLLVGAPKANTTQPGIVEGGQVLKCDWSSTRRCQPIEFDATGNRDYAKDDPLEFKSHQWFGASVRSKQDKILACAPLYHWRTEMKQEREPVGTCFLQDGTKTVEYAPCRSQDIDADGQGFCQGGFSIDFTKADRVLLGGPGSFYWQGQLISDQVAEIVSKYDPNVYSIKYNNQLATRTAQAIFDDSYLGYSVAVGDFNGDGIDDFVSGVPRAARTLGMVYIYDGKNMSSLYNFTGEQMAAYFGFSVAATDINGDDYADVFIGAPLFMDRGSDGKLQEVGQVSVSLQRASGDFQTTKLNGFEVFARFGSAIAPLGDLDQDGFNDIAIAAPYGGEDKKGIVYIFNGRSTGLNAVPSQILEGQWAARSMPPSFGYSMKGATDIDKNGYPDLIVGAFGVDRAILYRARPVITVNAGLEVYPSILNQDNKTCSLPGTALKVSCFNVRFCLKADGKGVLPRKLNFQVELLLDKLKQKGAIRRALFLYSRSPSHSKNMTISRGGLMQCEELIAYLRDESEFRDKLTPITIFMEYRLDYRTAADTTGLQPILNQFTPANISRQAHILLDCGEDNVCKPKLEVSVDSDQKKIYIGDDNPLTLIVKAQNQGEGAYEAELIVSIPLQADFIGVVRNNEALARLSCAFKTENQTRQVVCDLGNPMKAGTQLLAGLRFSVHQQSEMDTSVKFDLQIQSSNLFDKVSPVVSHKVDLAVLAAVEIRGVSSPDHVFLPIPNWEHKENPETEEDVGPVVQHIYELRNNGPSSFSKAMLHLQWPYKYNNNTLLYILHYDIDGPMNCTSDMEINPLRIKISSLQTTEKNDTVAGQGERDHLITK
T1 sequence (P06756 891-1048 partner limits assumed): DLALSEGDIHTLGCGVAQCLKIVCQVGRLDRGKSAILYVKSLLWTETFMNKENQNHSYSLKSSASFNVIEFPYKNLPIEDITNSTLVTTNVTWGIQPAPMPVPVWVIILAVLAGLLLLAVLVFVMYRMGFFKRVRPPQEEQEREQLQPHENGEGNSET
T1 sequence (P05106 27-788): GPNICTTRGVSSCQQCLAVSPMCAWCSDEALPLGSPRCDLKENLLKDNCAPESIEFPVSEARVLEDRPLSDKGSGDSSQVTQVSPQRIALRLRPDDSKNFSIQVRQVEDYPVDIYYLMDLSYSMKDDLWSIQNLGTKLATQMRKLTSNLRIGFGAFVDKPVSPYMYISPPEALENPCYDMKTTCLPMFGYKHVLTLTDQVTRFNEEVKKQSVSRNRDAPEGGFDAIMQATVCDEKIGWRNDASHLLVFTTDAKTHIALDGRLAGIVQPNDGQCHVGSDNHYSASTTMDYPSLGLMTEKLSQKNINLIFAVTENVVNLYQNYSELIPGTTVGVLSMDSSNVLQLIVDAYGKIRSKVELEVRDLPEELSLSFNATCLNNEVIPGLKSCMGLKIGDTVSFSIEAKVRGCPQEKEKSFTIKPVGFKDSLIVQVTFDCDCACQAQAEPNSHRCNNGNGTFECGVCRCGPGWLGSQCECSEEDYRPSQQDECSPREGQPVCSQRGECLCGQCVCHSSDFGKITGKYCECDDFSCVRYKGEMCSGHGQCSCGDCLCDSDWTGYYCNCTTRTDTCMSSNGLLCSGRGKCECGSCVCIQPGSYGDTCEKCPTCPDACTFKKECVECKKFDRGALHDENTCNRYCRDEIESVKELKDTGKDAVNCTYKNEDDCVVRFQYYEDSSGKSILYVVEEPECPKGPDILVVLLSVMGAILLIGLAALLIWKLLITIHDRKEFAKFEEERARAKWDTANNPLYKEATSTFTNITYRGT
T3 sequence (P08514 32-887 limits assumed): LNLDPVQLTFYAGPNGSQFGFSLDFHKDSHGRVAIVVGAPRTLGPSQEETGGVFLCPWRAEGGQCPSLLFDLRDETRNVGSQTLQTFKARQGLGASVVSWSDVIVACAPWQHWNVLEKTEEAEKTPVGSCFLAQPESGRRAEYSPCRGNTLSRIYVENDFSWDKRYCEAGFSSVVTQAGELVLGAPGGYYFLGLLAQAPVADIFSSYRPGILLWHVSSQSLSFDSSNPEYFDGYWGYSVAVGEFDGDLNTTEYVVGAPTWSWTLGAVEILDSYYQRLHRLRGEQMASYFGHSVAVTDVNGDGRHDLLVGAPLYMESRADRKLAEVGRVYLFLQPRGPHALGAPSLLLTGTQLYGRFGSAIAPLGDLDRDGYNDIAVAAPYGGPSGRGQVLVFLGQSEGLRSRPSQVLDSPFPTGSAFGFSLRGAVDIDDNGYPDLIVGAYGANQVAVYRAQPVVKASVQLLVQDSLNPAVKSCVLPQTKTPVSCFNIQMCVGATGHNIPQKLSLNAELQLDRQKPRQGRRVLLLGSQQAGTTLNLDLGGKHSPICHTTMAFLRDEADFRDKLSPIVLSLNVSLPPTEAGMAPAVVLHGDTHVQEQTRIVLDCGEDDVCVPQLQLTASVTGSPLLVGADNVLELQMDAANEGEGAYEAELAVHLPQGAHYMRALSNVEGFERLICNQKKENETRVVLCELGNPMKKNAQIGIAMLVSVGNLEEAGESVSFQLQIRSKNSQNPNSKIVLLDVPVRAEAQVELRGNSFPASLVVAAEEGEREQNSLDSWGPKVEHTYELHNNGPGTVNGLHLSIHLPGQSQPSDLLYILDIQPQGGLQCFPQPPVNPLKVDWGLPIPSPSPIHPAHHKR
T3 sequence (P08514 891-1039 partner limits assumed): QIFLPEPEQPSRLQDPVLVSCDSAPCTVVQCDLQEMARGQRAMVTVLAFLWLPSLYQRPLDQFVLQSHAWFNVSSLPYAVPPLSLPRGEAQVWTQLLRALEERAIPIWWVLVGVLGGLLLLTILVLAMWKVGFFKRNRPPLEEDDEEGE
T3 sequence (P05106 27-788): as the sequence (P05106 27-788) above

| Compound | Ki (integrin α5β1; [5]) | Ki (integrin α5β1; [6]) | Ki (integrin α5β1; [7]) | Ki (integrin α5β1; [8]) | Suppression of the binding of [125I]echistatin to immobilised integrin α5β1 (integrin α5β1) | further results |
| --- | --- | --- | --- | --- | --- | --- |
| CC(F)C(=O)N[C@H]1CSSC[C@@H](C(=O)O)NC(=O)[C@H](C)NC(=O)[C@H](Cc2c[nH]c3ccccc23)NC(=O)[C@H](C)NC(=O)[C@H]([C@@H](C)O)NC(=O)[C@H](CCC(=O)O)NC(=O)[C@H](CCCNC(=N)N)NC(=O)[C@H](CCCNC(=N)N)NC1=O (some centres unmarked) [FProp-C∗RRETAWAC∗-OH (1)] ({Propanoyl(2-F)}-CRRETAWAC-OH; disulfide 1-9) | 44 ± 3 nM | 41 nM and 47 nM |  |  |  | Ki (integrin αvβ3): > 50000 nM; Ki (integrin αIIbβ3): > 50000 nM |
| CC(F)C(=O)N[C@H]1CSSC[C@@H](C(=O)O)NC(=O)[C@H](C)NC(=O)[C@H](Cc2c[nH]c3ccccc23)NC(=O)[C@H](C)NC(=O)[C@H]([C@@H](C)O)NC(=O)[C@H](CCC(=O)O)NC(=O)[C@H](CCCNC(=N)N)NC(=O)[C@H](CCCNC(=N)N)NC1=O (some centres unmarked) [FProp-C∗RRETAWAC∗-OH (2)] ({Propanoyl(2-F)}-CRRETAWAC-OH; disulfide 1-9) | 77 ± 50 nM | 127 nM and 26 nM |  |  |  | Ki (integrin αvβ3; read-out: Binding affinity (Ki) αvβ3, immobilized integrin, 125I-echistatin as radioligand): > 50000 nM; Ki (integrin αIIbβ3; read-out: Binding affinity (Ki) αIIbβ3, immobilized integrin, 125I-echistatin as radioligand): > 50000 nM |
| C[C@@H]1NC(=O)[C@H](Cc2c[nH]c3ccccc23)NC(=O)[C@H](C)NC(=O)[C@H]([C@@H](C)O)NC(=O)[C@H](CCC(=O)O)NC(=O)[C@H](C)NC(=O)[C@H](CCCNC(=N)N)NC(=O)[C@@H](N)CSSC[C@@H](C(=O)O)NC1=O [H-C∗RAETAWAC∗-OH] (H-CRAETAWAC-OH; disulfide 1-9) |  |  | 16 ± 1 nM | 17 nM and 15 nM |  |  |
| C[C@@H]1NC(=O)[C@H](Cc2c[nH]c3ccccc23)NC(=O)[C@H](C)NC(=O)[C@H]([C@@H](C)O)NC(=O)[C@H](CCC(=O)O)NC(=O)[C@H](CCCNC(=N)N)NC(=O)[C@H](CCCNC(=N)N)NC(=O)[C@@H](N)CSSC[C@@H](C(=O)O)NC1=O [H-C∗RRETAWAC∗-OH, H-Cys^*-Arg-Arg-Glu-Thr-Ala-Trp-Ala-Cys^*-OH] (H-CRRETAWAC-OH; disulfide 1-9) |  |  | 5.3 ± 4.1 nM | 10 nM and 3.9 nM and 2.1 nM | fully suppress | Ki (integrin αvβ3; immobilized integrin, 125I-echistatin as radioligand, read-out: Binding affinity (Ki) αvβ3): > 50000 nM; IC50 (α5β1): 8 nM |
| FProp-C^*RRETAWAC^*-OH: non-radioactive reference compound, N-terminal (RS)-2-fluoropropionyl conjugate of the lead peptide ({(RS)‑2‑fluoropropionyl}-CRRETAWAC-OH; disulfide N-9) |  |  |  |  | fully suppress |  |
| [^18F]FProp-Cys^*-Arg-Arg-Glu-Thr-Ala-Trp-Ala-Cys^*-OH ({(18F)fluoropropionyl}-CRRETAWAC-OH; disulfide N-9) [[^18F]FProp-C^*RRETAWAC^*-OH, 18F-labelled radiopeptide tracer for integrin α5β1] |  |  |  |  |  | Protein bound activity in human serum [1]: below 6 % of the total incubated activity; Specific binding and internalisation (cell uptake) [2]: specific binding and internalisation; Specific uptake (cell uptake) [3]: no specific uptake; Serum stability (percentage printed in Figure 2) [4]: 97.1% |
